In US3954780A, “Propionic acid derivatives” (Innothera, priority 1970, dated 1976):
≈ marks a conversion by molar mass, not a printed value. Counter-ions that a name gives are not always drawn. Like-named read-outs stand apart in the source and are kept apart here.

How the values were obtained:
[1] = Acute toxicity in the mouse (DL50, method of Miller and Tainter); settings: in vivo, read-out: DL 50 (the source's name)
Source text: The acute toxicity of the amine ester derivatives of β-[ benzo(b)thienyl-3]propionic acid have been studied in the mouse by intraperitoneal and oral routes, the products being administered in an isotonic solution of sodium chloride, 0.9%, or in suspension in a dilute aqueous solution of carboxymethyl cellulose.
The calculation of the DL50 has been effected according to the method of MILLER and TAINTER (MILLER. L.C., TAINTER M.L. - Proc. Soc. Exptl. Biol. Med. 1944-57-261,264).

isolated rat duodenum = test: Spasmolytic activity of papaverinic type, barium chloride contracture; settings: Tyrode 38°; for EC50: read-out: Spasmolytic activity Papaverinic type DE 50 (converted)
Description: a. To show activity of the papaverinic type, the contracturant used is barium chloride acting on the isolated rat duodenum.
The average activity of the substances studied has been effected by determining graphically their DE 30 and DE 50 these being expressed in μg for 20 ml of bath.

[2] = system: isolated ileum of the guinea-pig; test: Spasmolytic activity of atropinic type, acetylcholine chloride contracture; settings: Tyrode 33°; for EC50: Cavia porcellus, read-out: Spasmolytic activity Atropinic type DE 50 (converted)
Source text: b. To show activity of atropinic type the contracturant used is acetylcholine chloride acting on the isolated ileum of the guinea-pig. […]

[3] = system: acute oedema provoked by serotonine in the rat; test: Anti-serotonic activity, serotonine-induced acute paw oedema; type: in vivo; settings: 30 minutes before serotonine
Description: This has been researched in the rat by the technique of the acute oedema localised in the metatarsal region, provoked by the injection of 0.05 ml of a 0.01% solution of serotonine (sulphate of 5-hydroxy-tryptamine-creatinine) in an isotonic solution of sodium chloride.
The plethysmometric measurements of the paw having been subjected to the injection have been effected before, and at different times after, the injection of the serotonine.
The derivatives to be studied have been administered by the oral route 30 minutes before the serotonine.

skin reflex = test: Local anaesthetic activity, conduction anaesthesia (method of Moukhtar); type: in vivo; settings: for average number of stimulations for the derivative studied n: intradermal 0.20 ml
Source text: The method of MOUKHTAR has been chosen to show the activity of the derivatives studied on conduction anaesthesia (A. MOUKHTAR, C.R. Soc. Biol. 1909-66-187,189).
The reference local anaesthetic substance used in the tests has in each case been procaine hydrochloride in 0.5% solution in an 0.9% isotonic solution of NaCl. The three concentrations used to study the local anaesthetic activity of the new derivatives are 0.50, 0.25 and 0.10%, the vehicle being the isotonic 0.9% solution of NaCl.
The average anaesthetic activity of the substances chosen is expressed comparatively to that of the reference product chosen, by calculating the ratio of the average number n of the stimulations necessary to obtain the appearance of the skin reflex in the case of the derivatives studied, to the average number (n') of the stimulation determined for the reference substance.
The procaine hydrochloride and the derivatives studied are administered by the intradermal route at the rate of 0.20 ml per injection.

[4] = derivative 0.10 g/100 ml vs procaine hydrochloride 0.50 g/100 ml
[5] = derivative 0.25 g/100 ml vs procaine hydrochloride 0.50 g/100 ml
[6] = derivative 0.50 g/100 ml vs procaine hydrochloride 0.50 g/100 ml

Structure (SMILES)	LD50 ([1]; ip)	LD50 ([1]; v.o. (oral) route)	Spasmolytic activity Papaverinic type DE 30 (isolated rat duodenum)	EC50 (isolated rat duodenum)	EC50 [2]	Spasmolytic activity Atropinic type DE 30 [2]	average percentage reduction in oedema after 1 hour ([3]; 50 mg/kg oral)	average percentage reduction in oedema after 2 hours ([3]; 50 mg/kg oral)	average number of stimulations for the derivative studied n (skin reflex; 0.10 g/100 ml)	average number of stimulations for the derivative studied n (skin reflex; 0.25 g/100 ml)	average number of stimulations for the derivative studied n (skin reflex; 0.50 g/100 ml)	local anaesthetic activity n/n' (skin reflex; [4])	local anaesthetic activity n/n' (skin reflex; [5])	local anaesthetic activity n/n' (skin reflex; [6])	average percentage reduction in oedema after 1 hour ([3]; 30 mg/kg oral)	average percentage reduction in oedema after 2 hours ([3]; 30 mg/kg oral)
C=CCC(Cc1csc2ccccc12)C(=O)OCCCN(CC)CC (stereo not drawn) [Compound 7, citrate of the N,N-diethylamino propyl esters of x-allyl-β-[benzo(b)thienyl-3]propionic acid]	210 ± 10 mg/kg	1290 ± 80 mg/kg	2.2 μg for 20 ml of bath	0.225 µg/mL	16.2 µg/mL	170 μg/20 ml of bath	27.6%	36.6%	12.2	18.9	29.5	0.3	0.6	1.0	–	–
CCN(CC)CCCOC(=O)C(Cc1csc2ccccc12)CC1CCCO1 (stereo not shown) [Compound 53]	145 ± 9 mg/kg	1150 ± 78 mg/kg	4.5 μg for 20 ml of bath	0.4 µg/mL (≈ 0.991 µM)	7 µg/mL (≈ 17.3 µM)	75 μg/20 ml of bath	40.6%	42.9%	14.2	29.1	33.2	0.5	1.0	1.2	19.4%	15.1%
O=C(OCCCN1CCCC1)C(Cc1csc2ccccc12)CC1CCCO1 (stereo not shown) [Compound 54]	100 ± 12 mg/kg	400 ± 27 mg/kg	9.5 μg for 20 ml of bath	0.6 µg/mL (≈ 1.49 µM)	4.5 µg/mL (≈ 11.2 µM)	52 μg/20 ml of bath	34.9%	45.0%	16.7	25.7	31.4	0.6	0.8	1.1	22.4%	16.0%
